Results as given in patent publication US7906137B2, “Delivery agents for enhancing mucosal absorption of therapeutic agents” (Mediplex Corporation, Korea, priority 2004, dated 2011).

Target: insulin (Homo sapiens, UniProt P01308)
Test: Dissociation of high order protein aggregates by circular dichroism
Type: physicochemical
Settings: 0.18 mM insulin, 0.18-37 mM MP-DCK, CD 300 to 250 nm, room temperature (FIG. 5)
Procedure: A circular dichroism spectropolarimeter (Jasco J-715, Tokyo, Japan) was used to measure the effect of a delivery carrier on the aggregation state of insulin. Solutions containing 0.18 mM insulin and different concentration of MP-DCK (0.18-37 mM) were scanned from 300 to 250 nm at room temperature at a scanning speed of 50 nm/min using a cuvette with a pathlength of 0.1 cm. The results of the test are illustrated in FIG. 5.

Chain of insulin (P01308 25-54 limits assumed): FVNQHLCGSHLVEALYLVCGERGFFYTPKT
Chain of insulin (P01308 90-110 limits assumed): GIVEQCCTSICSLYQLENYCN

COC(=O)[C@H](CCCCN)NC(=O)CC[C@@H](C)[C@H]1CC[C@H]2[C@@H]3CC[C@@H]4C[C@H](O)CC[C@]4(C)[C@H]3C[C@H](O)[C@]12C [DCK, N^α-deoxychoyl-L-lysine-methylester]
aggregation state of insulin: decrease the aggregation state of the insulin
